Consider four molecules from PubChem BioAssay AID1259407 (Chemical Carcinogenesis Research Information System (CCRIS), 2018).

Each structure is given as a SMILES string. Active and inactive are the calls of the source. How the calls were made is not given here.

For this data set, the system named is CCRIS mutagenicity, Ames/micronucleus/aberration tests. In words: CCRIS mutagenicity studies.
[1] abbreviates: Test System: AMES SALMONELLA TYPHIMURIUM, Strain/Indicator: TA98, Metabolic Activation: NONE, Method: STANDARD PLATE.
The mark [2] stands for this setting: Test System: AMES SALMONELLA TYPHIMURIUM, Strain/Indicator: TA100, Metabolic Activation: NONE, Method: STANDARD PLATE.

Turning to `O=[As]O`, the mutagenic call is “active; positive (structural changes: breaks, exchanges, endoreduplication)” (End Point: IN VITRO CHROMOSOMAL ABERRATIONS, Test System: CHINESE HAMSTER OVARY (CHO), Metabolic Activation: NONE); “active; positive (structural changes: breaks, fusion)” (End Point: IN VITRO CHROMOSOMAL ABERRATIONS, Test System: HUMAN FIBROBLAST (HFW), Metabolic Activation: NONE); “active; positive (hyperdiploidy)” (End Point: IN VITRO CHROMOSOMAL ABERRATIONS, Test System: HUMAN LYMPHOCYTES, Metabolic Activation: NONE, Method: FISH); “inactive; negative” (End Point: IN VITRO CHROMOSOMAL ABERRATIONS, Test System: V79-C13 CHINESE HAMSTER CELLS, Metabolic Activation: NONE); “active; positive” (End Point: IN VITRO MICRONUCLEUS, Test System: CHINESE HAMSTER OVARY CELLS, Metabolic Activation: NONE); “active; positive” (End Point: IN VITRO MICRONUCLEUS, Test System: CHINESE HAMSTER V-79, Metabolic Activation: NONE). In addition, the mutagenic call was “active; positive” (End Point: IN VITRO MICRONUCLEUS, Test System: HUMAN FIBROBLASTS VH25 CELLS, Metabolic Activation: NONE); “active; positive” (End Point: IN VITRO MICRONUCLEUS, Test System: V79-C13 CHINESE HAMSTER CELLS, Metabolic Activation: NONE); “active; positive” (End Point: In vitro chromosomal aberrations, Test System: Human peripheral lymphocytes, Metabolic Activation: None); “active; positive” (End Point: In vitro micronucleus, Test System: Human peripheral lymphocytes, Metabolic Activation: None); “active; positive” (End Point: In vivo micronucleus, Test System: Bone marrow polychromatic erythrocytes, Species: Mouse, Strain/Sex: C57BL/6J/Han/Male, Route: Oral); “inactive; negative” (Test System: AMES SALMONELLA TYPHIMURIUM, Strain/Indicator: TA102, Metabolic Activation: NONE, Method: STANDARD PLATE). The mutagenic call is “active; positive” (Test System: MOUSE LYMPHOMA, Strain/Indicator: L5178Y (TK+/TK-), Metabolic Activation: NONE, Method: SUSPENSION/PLATE) and “active; positive (statistically significant at 2 highest doses)” (Test System: Mouse lymphoma, Strain/Indicator: L5178Y (TK+/TK-), Metabolic Activation: None, Method: Microwell).

`CCCSP(=O)(OCC)SCCC`: the mutagenic call is “inactive; negative” (End Point: In vitro chromosomal aberrations, Test System: Chinese hamster ovary (CHO) cells, Metabolic Activation: None); “inactive; negative” (End Point: UDS/DNA repair, Test System: Fischer 344 rat (male) hepatocytes, Metabolic Activation: None, Method: Autoradiography); “inactive; negative” (End Point: UDS, Test System: Fischer 344 rat hepatocytes, Metabolic Activation: None, Method: Autoradiography); “inactive; negative” (Test System: Ames Salmonella typhimurium, Strain/Indicator: TA98, Metabolic Activation: None, Method: Plate incorporation); “inactive; negative” (Test System: Ames Salmonella typhimurium, Strain/Indicator: TA98, Metabolic Activation: Rat, Liver, S-9, Method: Plate incorporation); “inactive; negative” (Test System: Ames Salmonella typhimurium, Strain/Indicator: TA100, Metabolic Activation: None, Method: Plate incorporation). Moreover, the mutagenic call was “inactive; negative” (Test System: Ames Salmonella typhimurium, Strain/Indicator: TA100, Metabolic Activation: Rat, Liver, S-9, Method: Plate incorporation); “inactive; negative” (Test System: Ames Salmonella typhimurium, Strain/Indicator: TA1535, Metabolic Activation: None, Method: Plate incorporation); “inactive; negative” (Test System: Ames Salmonella typhimurium, Strain/Indicator: TA1535, Metabolic Activation: Rat, Liver, S-9, Method: Plate incorporation); “inactive; negative” (Test System: Ames Salmonella typhimurium, Strain/Indicator: TA1537, Metabolic Activation: None, Method: Plate incorporation); “inactive; negative” (Test System: Ames Salmonella typhimurium, Strain/Indicator: TA1537, Metabolic Activation: Rat, Liver, S-9, Method: Plate incorporation); “inactive; negative” (Test System: Ames Salmonella typhimurium, Strain/Indicator: TA1538, Metabolic Activation: None, Method: Plate incorporation). The mutagenic call (Test System: Ames Salmonella typhimurium, Strain/Indicator: TA1538, Metabolic Activation: Rat, Liver, S-9, Method: Plate incorporation) was “inactive; negative”; the mutagenic call (Test System: Chinese hamster ovary, Strain/Indicator: CHO-K1-BH4 (HGPRT), Metabolic Activation: None, Method: Suspension/plate) is “inactive; negative”; the mutagenic call (Test System: Chinese hamster ovary, Strain/Indicator: CHO-K1-BH4 (HGPRT), Metabolic Activation: Rat, Liver, S-9, Method: Suspension/plate) is “inactive; negative”; the mutagenic call (Test System: Mouse lymphoma cells, Strain/Indicator: L5178Y cells, Metabolic Activation: None, Method: Plate) is “inactive; negative”; the mutagenic call (Test System: Mouse lymphoma cells, Strain/Indicator: L5178Y cells, Metabolic Activation: S-9, Method: Plate) is “inactive; negative”.

`ClCCNCCCNc1c2ccccc2nc2ccccc12`: the mutagenic call reads like this: under setting [1], “active; positive”; under setting [2], “active; positive”; (Test System: AMES SALMONELLA TYPHIMURIUM, Strain/Indicator: TA1535, Metabolic Activation: NONE, Method: STANDARD PLATE) “active; positive”; (Test System: AMES SALMONELLA TYPHIMURIUM, Strain/Indicator: TA1536, Metabolic Activation: NONE, Method: STANDARD PLATE) “active; positive”; (Test System: AMES SALMONELLA TYPHIMURIUM, Strain/Indicator: TA1537, Metabolic Activation: NONE, Method: STANDARD PLATE) “active; positive”; (Test System: AMES SALMONELLA TYPHIMURIUM, Strain/Indicator: TA1538, Metabolic Activation: NONE, Method: STANDARD PLATE) “active; positive”.

As for `CC(N)c1ccccc1.CC(N)c1ccccc1.[Cl][Pt][Cl]` (stereo not given), the mutagenic call is “active; positive” under setting [1]; “active; positive” under setting [2]; “active; positive” (Test System: AMES SALMONELLA TYPHIMURIUM, Strain/Indicator: TA2410, Metabolic Activation: NONE, Method: STANDARD PLATE).
